Laboratory results taken from patent US20230135894A1, “MK2 DEGRADERS AND USES THEREOF” (Kymera Therapeutics, Inc., priority 2021, published 2023).

How the values were obtained:
[1] = biological target: T1, MK2 (Homo sapiens, UniProt P49137); assay: MK2 degradation in human THP-1 monocytic cells (MSD, 24 h); type: cell-based; parameters: endogenous in cells; key to MK2 MSD THP-1 degradation 24 h GMean External Abs DC50: A (<0.001 μM); B (0.001-0.01 μM); C (0.01-0.1 μM); D (>0.1 μM); —: “-”=not tested or inactive; conditions: for Dmax: THP-1, THP-1 cells; for DC50: read-out: MK2 MSD THP-1 degradation 24 h GMean External Abs DC50
T1 sequence (P49137 whole entry): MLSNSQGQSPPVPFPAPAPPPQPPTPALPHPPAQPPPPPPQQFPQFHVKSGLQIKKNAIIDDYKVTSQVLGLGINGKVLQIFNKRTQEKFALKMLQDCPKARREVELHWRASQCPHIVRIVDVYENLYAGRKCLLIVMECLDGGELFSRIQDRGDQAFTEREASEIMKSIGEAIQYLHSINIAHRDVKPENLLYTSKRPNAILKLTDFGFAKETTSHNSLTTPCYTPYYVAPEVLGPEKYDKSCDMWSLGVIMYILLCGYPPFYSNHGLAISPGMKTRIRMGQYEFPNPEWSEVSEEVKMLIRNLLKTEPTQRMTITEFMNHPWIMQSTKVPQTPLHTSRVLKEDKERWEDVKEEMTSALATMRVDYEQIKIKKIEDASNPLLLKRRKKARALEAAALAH
How it was run: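 Readout: residual MK2 protein in THP-1 lysates, measured by MSD electrochemiluminescence sandwich assay after 24 h compound exposure (≤10-point serial dilutions, 0.1% DMSO, 37 °C). Curves normalised between lysis-buffer and DMSO-cell signals; DC50 by 4-parameter logistic fit.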

[2] = biological target: T1, MK2; assay: MK2 degradation in human SW1353 cells (MSD, 24 h); type: cell-based; parameters: endogenous in cells; host or cells: SW-1353 (ATCC HTB-94); key to MK2 MSD SW1353 degradation 24 h GMean External Abs DC50: A (<0.001 μM); B (0.001-0.01 μM); C (0.01-0.1 μM); D (>0.1 μM); —: “-”=not tested or inactive; key to MK2 MSD SW 1353 24 h Dmax %: —: “-”=not tested or inactive; conditions: for Dmax: read-out: MK2 MSD SW 1353 24 h Dmax %; for DC50: read-out: MK2 MSD SW1353 degradation 24 h GMean External Abs DC50
How it was run: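 DC50 derived by 4-parameter logistic fit, with DMSO-treated signal as top and lysis-buffer signal as bottom. Remaining MK2 was measured by MSD electrochemiluminescent sandwich assay in RIPA lysates of human SW1353 cells exposed for 24 h at 37 °C to serially diluted compound in 0.1% DMSO.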

Structure (SMILES)	Dmax [1]	DC50 ([1]; THP-1 cells)	MK2 MSD SW1353 degradation 24 h GMean External Abs DC50 [2]	Dmax [2]	MK2 MSD SW 1353 24 h Dmax % [2]	DC50 [2]	MK2 MSD THP-1 degradation 24 h GMean External Abs DC50 ([1]; THP-1 cells)
Cn1c(=O)n(C2CCC(=O)NC2=O)c2cccc(CCCN3CCN(c4ccc(-c5cc(-c6cc7c([nH]6)C6(CC6)CNC7=O)ccn5)cn4)CC3)c21 (centres unmarked) [Compound I-199]	> 75%	1 to 10 nM	—	> 75%			
Cn1c(=O)n(C2CCC(=O)NC2=O)c2cccc(CCN3CCN(c4ccc(-c5cc(-c6cc7c([nH]6)C6(CC6)CNC7=O)ccn5)cn4)CC3)c21 (centres unmarked) [Compound I-200]	> 75%	1 to 10 nM	—	> 75%			
Cn1c(=O)n(C2CCC(=O)NC2=O)c2ccc(CCN3CCN(c4ccc(-c5cc(-c6cc7c([nH]6)C6(CC6)CNC7=O)ccn5)cn4)CC3)cc21 (centres unmarked) [Compound I-201]	< 50%	> 100 nM	—		—		
Cn1c(=O)n(C2CCC(=O)NC2=O)c2ccc(CCN3CCN(c4ccc(-c5cc(-c6cc7c([nH]6)C6(CC6)CNC7=O)ccn5)cc4)CC3)cc21 (centres unmarked) [Compound I-202]	< 50%	> 100 nM	—		—		
Cn1c(=O)n(C2CCC(=O)NC2=O)c2cccc(CCN3CCN(c4ccc(-c5cc(-c6cc7c([nH]6)C6(CC6)CNC7=O)ccn5)cc4)CC3)c21 (centres unmarked) [Compound I-203]	> 75%	1 to 10 nM	—	> 75%			
Cn1c(=O)n(C2CCC(=O)NC2=O)c2cccc(CCCN3CCN(c4ccc(-c5cc(-c6cc7c([nH]6)C6(CCC6)CNC7=O)ccn5)cc4)CC3)c21 (centres unmarked) [Compound I-204]	> 75%	1 to 10 nM	—		—		
Cn1c(=O)n(C2CCC(=O)NC2=O)c2ccc(N3CCC(CN4CCN(c5ccc(-c6cc(-c7cc8c([nH]7)C7(CCC7)CNC8=O)ccn6)cc5)CC4)CC3)cc21 (centres unmarked) [Compound I-205]	> 75%	< 1 nM	—		—		
Cn1c(=O)n(C2CCC(=O)NC2=O)c2ccc(N3CCC(CN4CCN(c5cc(-c6ccc7cc[nH]c7c6)cc(-c6cc(-c7cc8c([nH]7)CCNC8=O)ccn6)c5)CC4)CC3)cc21 (centres unmarked) [Compound I-206]	50 to 75%	1 to 10 nM	—		—		
Cc1cc(-c2cc(-c3cc4c([nH]3)CCNC4=O)ccn2)cc(C)c1N1CCN(CC2CCN(c3ccc4c(c3)n(C)c(=O)n4C3CCC(=O)NC3=O)CC2)CC1 (centres unmarked) [Compound I-207]	50 to 75%	1 to 10 nM	—	> 75%			
C[C@@H]1Cc2oc(-c3ccnc(-c4ccc(N5CCN(CC6CCN(c7ccc8c(c7)n(C)c(=O)n8C7CCC(=O)NC7=O)CC6)CC5)cc4)c3)cc2C(=O)N1 (some centres unmarked) [Compound I-208]	< 50%	> 100 nM		< 50%		> 100 nM	
C[C@@H]1Cc2oc(-c3ccnc(-c4ccc(N5CCN(CC6CCN(c7ccc8c(c7)n(C)c(=O)n8C7CCC(=O)NC7=O)CC6)CC5)nc4)c3)cc2C(=O)N1 (some centres unmarked) [Compound I-209]	< 50%	> 100 nM	—	< 50%			
O=C1CCN(c2cncc3c(N4CCC(CN5CCN(c6ccc(-c7cc(-c8cc9c([nH]8)CCNC9=O)ccn7)cc6)CC5)CC4)cccc23)C(=O)N1 [Compound I-210]	50 to 75%	10 to 100 nM		> 75%		10 to 100 nM	
O=C1CCN(c2cncc3c(N4CCC(CN5CCN(c6ccc(-c7cc(-c8cc9c([nH]8)C8(CC8)CNC9=O)ccn7)cc6)CC5)CC4)cccc23)C(=O)N1 [Compound I-211]	50 to 75%	10 to 100 nM		> 75%		10 to 100 nM	
O=C1CCN(c2cncc3c(N4CCN(CC5CCN(c6ccc(-c7cc(-c8cc9c([nH]8)C8(CC8)CNC9=O)ccn7)cc6)CC5)CC4)cccc23)C(=O)N1 [Compound I-212]	> 75%	10 to 100 nM		> 75%		10 to 100 nM	
Cn1c(=O)n(C2CCC(=O)NC2=O)c2ccc(N3CCC(CN4CCN(c5ccc(-c6cc(-c7cc8c([nH]7)C7(CCC7)CNC8=O)ccn6)cn5)CC4)CC3)cc21 (centres unmarked) [Compound I-213]	> 75%	< 1 nM		> 75%		< 1 nM	
C[C@@H]1CNc2c(sc3ccc4nc(-c5ccc(N6CCN(C[C@@H]7CCN(c8ccc9c(c8)n(C)c(=O)n9C8CCC(=O)NC8=O)C7)CC6)cc5)ccc4c23)C(=O)N1 (some centres unmarked) [Compound I-214]	50 to 75%	1 to 10 nM		> 75%		< 1 nM	
C[C@@H]1CNc2c(sc3ccc4nc(-c5ccc(N6CCN(CCOc7ccc8c(c7)n(C)c(=O)n8C7CCC(=O)NC7=O)CC6)cc5)ccc4c23)C(=O)N1 (some centres unmarked) [Compound I-215]	50 to 75%			> 75%		< 1 nM	—
C[C@@H]1CNc2c(sc3ccc4nc(-c5cc(Cl)cc(N6CCN(CC7CCN(c8ccc9c(c8)n(C)c(=O)n9C8CCC(=O)NC8=O)CC7)CC6)c5)ccc4c23)C(=O)N1 (some centres unmarked) [Compound I-216]	> 75%	< 1 nM		> 75%		1 to 10 nM	
Cc1cc(N2CCN(CC3CCN(c4ccc5c(c4)n(C)c(=O)n5C4CCC(=O)NC4=O)CC3)CC2)ccc1-c1cc(-c2cc3c([nH]2)C2(CC2)CNC3=O)ccn1 (centres unmarked) [Compound I-217]	< 50%	> 100 nM		< 50%		> 100 nM	
Cn1c(=O)n(C2CCC(=O)NC2=O)c2ccc(N3CCC(CN4CCN(c5ccc(-c6cc(-c7cc8c([nH]7)C7(CC7)CNC8=O)ccn6)c(F)c5)CC4)CC3)cc21 (centres unmarked) [Compound I-218]	> 75%	< 1 nM		> 75%		< 1 nM	
C[C@@H]1CNc2c(sc3ccc4nc(-c5cc(N6CCN(CC7CCN(c8ccc9c(c8)n(C)c(=O)n9C8CCC(=O)NC8=O)CC7)CC6)nc(C(C)(C)O)c5)ccc4c23)C(=O)N1 (some centres unmarked) [Compound I-219]	< 50%	> 100 nM		< 50%		> 100 nM	
Cc1cnc(-c2ccnc(C(=O)NCCCCCCc3ccc4c(c3)n(C)c(=O)n4C3CCC(=O)NC3=O)n2)cc1-n1c(C)cc(OCc2ncc(F)cc2F)c(Cl)c1=O (centres unmarked) [Compound I-220]	< 50%	> 100 nM		< 50%		> 100 nM	
C[C@@H]1CNc2c(sc3ccc4nc(-c5ccc(N6CCN(C[C@H]7C[C@@H](c8ccc9c(c8)n(C)c(=O)n9C8CCC(=O)NC8=O)C7)CC6)cc5)ccc4c23)C(=O)N1 (some centres unmarked) [Compound I-221]	> 75%	< 1 nM		> 75%		< 1 nM	
C[C@@H]1CNc2c(sc3ccc4nc(-c5ccc(N6CCN(C[C@H]7C[C@H](c8ccc9c(c8)n(C)c(=O)n9C8CCC(=O)NC8=O)C7)CC6)cc5)ccc4c23)C(=O)N1 (some centres unmarked) [Compound I-222]	> 75%	< 1 nM		> 75%		< 1 nM	
Cn1c(=O)n(C2CCC(=O)NC2=O)c2ccc(N3CCC(CN4CCN(c5cc(-c6ccccc6)cc(-c6cc(-c7cc8c([nH]7)CCNC8=O)ccn6)c5)CC4)CC3)cc21 (centres unmarked) [Compound I-224]	< 50%	> 100 nM		< 50%		> 100 nM	
Cn1c(=O)n(C2CCC(=O)NC2=O)c2ccc(N3CCC(CN4CCN(c5cc(C#N)cc(-c6cc(-c7cc8c([nH]7)CCNC8=O)ccn6)c5)CC4)CC3)cc21 (centres unmarked) [Compound I-225]	< 50%	> 100 nM		< 50%		> 100 nM	
